# Values of other authors as cited in the CATMoS acute toxicity set (Mansouri et al. 2021).
# Values joined by “and” are separate entries in the source; they are usually repeats but may differ in a detail not shown here. Equal values may be shown once.
# Assay: rat acute oral toxicity
# Conditions: in vivo
# From the text: […]The data set underlying the modeling effort for this project was initially compiled by NICEATM and U.S. EPA’s CCTE. Briefly, LD50 data were collected from rat acute oral systemic toxicity tests, including limit tests, ranges/confidence intervals, and discrete LD50 values. The full data set included 21,200 LD50 entries for 15,688 substances. […] Data were reviewed to ensure that LD50 values with obvious errors in the extracted data such as unit conversion errors (e.g., comma and decimal separator misplacements) were either fixed or removed. After this review, 16,209 LD50 values remained. Many of the chemicals represented had multiple LD50 entries, requiring that a single representative value per Chemical Abstracts Service Registry Number (CASRN) identifier be defined to facilitate modeling efforts. Based on ATWG feedback and to define the representative LD50 as a protective value while accounting for the distribution across multiple LD50s, the median of the lowest quartile was computed using only discrete LD50 values (omitting limit test data and range and confidence interval data). A detailed summary of the data compilation is available online on the NICEATM webpage dedicated to the collaborative modeling project (NTP 2020).
# […][…] For categorical designations, limit test and range/confidence interval LD50 data were integrated wherever possible. As such, the number of chemicals with end point values/calls varies across the modeling end points (Table 3) based on whether chemicals had representative LD50 values and/or other data. If a chemical had both, the representative value was used to determine categorical calls rather than limit test data. Some data were useable only for certain end points and categories depending on the thresholds. For example, ranges that spanned multiple hazard categories were considered only for the binary (very toxic/nontoxic) end points and omitted from rendering a determination for hazard category assignment.
# […]The final data set comprising 11,992 chemicals was split into training and evaluation sets […], respectively. This process was performed semirandomly by ordering chemicals based on the five end points (categorical and continuous LD50 values) and partitioning every fourth record into the evaluation set accordingly. This approach was taken to ensure an equivalent distribution of the LD50 values and the different hazard categories between the training and the evaluation sets without supervised sampling of the chemicals based on structures (Figure 1A). The sources of the chemical structures were also kept equivalent between the two sets, with chemical structures obtained from DSSTox, being the highest quality, representing over 75% of each set (Figure 1B).
row,Compound,LD50
1,Cc1c(Cl)c(Br)c(Cl)c2[nH]c(C(F)(F)F)nc12,18.3 mg/kg
2,CNS(=O)(=O)CCNC(=O)N(CCCl)N=O,40 mg/kg
3,N#CCCNc1ccccc1,4700 mg/kg
4,CNC(=O)Oc1c(C(C)C)ccc(C)c1N(C)C,67 mg/kg
5,CN(CO)C(=S)S,590 mg/kg
6,CC1=NN(c2ccc(C)cc2)C(=O)C1,7450 mg/kg
7,Cc1cc(O)c(C)c(C)c1O,3200 mg/kg
8,COP(=S)(OC)SSP(=S)(OC)OC,10000 mg/kg
9,O=C(CF)Nc1ccc(-c2ccccc2)cc1,10 mg/kg
10,O=c1nc(O)n(Cl)c(=O)n1Cl,1220 mg/kg
11,COc1ccc(CCN(C)CCc2ccc(OC)c(OC)c2)cc1OC,178 mg/kg
12,CCc1c2c(nc3ccc(OC(=O)N4CCC(N5CCCCC5)CC4)cc13)-c1cc3c(c(=O)n1C2)COC(=O)C3(O)CC (stereo unspecified),867 mg/kg
13,O=C1CCc2cc(C(=O)CCCN3CCN(c4ccccc4)CC3)ccc2N1,500 mg/kg
14,CCCCC(C#N)(Cn1ccnc1)c1ccccc1 (stereo unspecified),1590 mg/kg
15,CCCCC(CC)CNCC(C)(N)CN(C)CC(CC)CCCC (stereo unspecified),1000 mg/kg
16,CC(N)C12CC3CC(CC(C3)C1)C2 (stereo unspecified),640 mg/kg
17,Nc1ccc(C(=O)c2ccccc2)c(C(=O)O)c1,5400 mg/kg
18,NC(=S)NNCNNC(N)=S,6.35 mg/kg
19,COc1cc2c(cc1OC)C1CC(=O)C(CCC#N)CN1CC2 (stereo unspecified),620 mg/kg
20,COc1c(C)c2c(c(O)c1C/C=C(\C)CCC(=O)O)C(=O)OC2,352 mg/kg
21,COc1ccc(N)cc1Cl,550 mg/kg
22,CCC(C)NC(=S)C(=S)NC(C)CC (stereo unspecified),6 mg/kg

row,Compound,LD50
1,CC[C@]1(CO)CCCN2CCc3c([nH]c4ccccc34)[C@@H]21,1200 mg/kg
2,COCCOC(=O)CCCCCCCCC(=O)OCCOC,4970 mg/kg
3,COP(=O)(NC(=O)CCCCl)SC (stereo unspecified),3 mg/kg
4,COCC=O,2330 mg/kg
5,O=C1c2cccc(S(=O)(=O)O)c2C(=O)c2cccc(S(=O)(=O)O)c21,2360 mg/kg
6,COC(=O)C=C1CCCC1,3360 mg/kg
7,C[C@@]12CCCCC[C@@H](Cc3ccc(O)cc31)[C@@H]2N,243 mg/kg
8,CCOP(=S)(OCC)SCSCSP(=S)(OCC)OCC,8.5 mg/kg
9,CCC(C)c1cc([N+](=O)[O-])cc([N+](=O)[O-])c1OC(C)=O (stereo unspecified),60 mg/kg
10,COC1=CC(=O)OC(C=CC2=CCCC=C2)C1 (stereo unspecified),16000 mg/kg
11,COc1ccc(C=CC(=O)O)cc1O,7900 mg/kg
12,c1cc2c(cc1C1CCCCC1)c1c3n2CCNC3CCC1 (stereo unspecified),3070 mg/kg
13,CCOC(C(=O)N(C)CCN(C)C)(c1ccccc1)c1ccccc1,565 mg/kg
14,COc1ccc(Cl)cc1N/C(=N/C1CCCCC1)c1ccccc1,625 mg/kg
15,BrCC(Br)C1CCC(Br)C(Br)C1 (stereo unspecified),3220 mg/kg
16,Fc1cc(F)c2nc(C(F)(F)F)[nH]c2c1,2.49 mg/kg
17,CC(C)(C(N)=O)c1ccccc1,1650 mg/kg
18,CCSC(=S)N(C)C,550 mg/kg
19,CN1CCN(C(=O)N/N=C/c2ccc([N+](=O)[O-])o2)CC1,750 mg/kg
20,CNC(=O)Oc1ccc(NC(=O)OC)c(C(C)C)c1,27 mg/kg
21,O=C1[C@H]2CCCC[C@H]2C(=O)N1CCCCN1CCN(c2nsc3ccccc23)CC1,870 mg/kg
22,Cc1ccc(SP(=S)(CCl)OC(C)C)cc1 (stereo unspecified),204 mg/kg

row,Compound,LD50
1,NCCCCC(CN)CCCN (stereo unspecified),760 mg/kg
2,C=CCC1=C(C)[C@H](OC(=O)[C@H]2[C@H](C=C(C)C)C2(C)C)CC1=O (relative stereo),1320 mg/kg
3,CC(C)CNC(=O)NS(=O)(=O)c1ccc(Cl)cc1,1100 mg/kg
4,CCN(O)CC,2190 mg/kg
5,CON(C(=O)CSP(=S)(OC)OC)C(C)C,260 mg/kg
6,CC(C)(C)NCC(O)c1cc(Cl)c(N)c(Cl)c1 (stereo unspecified),159 mg/kg
7,C=CC(CCCCC)OC(C)=O (stereo unspecified),850 mg/kg
8,Cc1cccc(Nc2ccccc2C(=O)O)c1C,740 mg/kg
9,Nc1ccc(S(=O)(=O)O)c2cccc(S(=O)(=O)O)c12,56000 mg/kg
10,c1cc(CC2CO2)cc(CC2CO2)c1 (stereo unspecified),4190 mg/kg
11,ClCc1cccnc1,316 mg/kg
12,CCOc1ccccc1OCC,7250 mg/kg
13,CNC(=O)O/N=C/C(C)(C)S(C)=O (stereo unspecified),0.49 mg/kg
14,CC(=O)CC1OCC(CCl)O1 (stereo unspecified),120 mg/kg
15,CCOP(=S)(OCC)SCSC(C)C,1.1 mg/kg
16,Cn1cc[nH]c1=S,2250 mg/kg
17,O=C1OCc2c(Cl)c(Cl)c(Cl)c(Cl)c21,20000 mg/kg
18,Nc1c([N+](=O)[O-])cc(Cl)cc1[N+](=O)[O-],400 mg/kg
19,CCCCCCOCCO,830 mg/kg
20,CNC(=O)c1c(I)c(C(=O)NCC(=O)Nc2c(I)c(C(=O)O)c(I)c(C(=O)NCCO)c2I)c(I)c(N(C)C(C)=O)c1I,13300 mg/kg
21,C=C(C)C(=O)OCCOC(=O)C(=C)C,3300 mg/kg
22,CCCN(CCC)C(=O)C(Cc1ccc(OCCN(CC)CC)cc1)NC(=O)c1ccccc1 (stereo unspecified),800 mg/kg and 1070 mg/kg

row,Compound,LD50
1,CCCOP(=S)(OCCC)Oc1cnn(C)c(=O)c1OC,26 mg/kg
2,CCCCn1cnnc1,50 mg/kg
3,CSCc1cnccn1,2150 mg/kg
4,CCOP(=S)(OCC)Oc1ccc(Cl)c([N+](=O)[O-])c1,100 mg/kg
5,C=C(C)C(=O)Nc1ccc(Cl)c(Cl)c1,1800 mg/kg
6,CC1(C)CN(c2ccccc2)NC1=O,30 mg/kg
7,CCCCNC(=S)N(CCCC)CCCC,3000 mg/kg
8,CNC(=O)OCc1cccc(COC(=O)NC)n1,1230 mg/kg
9,Cc1cc(Cl)ccc1NC(=S)N(C)C,2500 mg/kg
10,Nc1ncnc(Nc2cccc(Cl)c2)n1,400 mg/kg
11,Cn1c(=O)c2c(ncn2CCNCc2cccnc2)n(C)c1=O,3700 mg/kg
12,Cc1cc(C)c(C(=O)Cl)c(C)c1,2300 mg/kg
13,COC1(C)CC(c2ccccc2)c2c(c3ccccc3oc2=O)O1 (stereo unspecified),4000 mg/kg
14,Cc1ncc(CSSCc2cnc(C)c(O)c2CO)c(CO)c1O,6000 mg/kg
15,Cc1cc(=O)[nH]c(=S)[nH]1,1500 mg/kg
16,CNC(=O)ON=C1C2CCC(C2)C1(C)[N+](=O)[O-] (stereo unspecified),24 mg/kg
17,ClCC(Br)CBr (stereo unspecified),170 mg/kg
18,CNC(=O)N(O)c1ccccc1,3400 mg/kg
19,C#CCBr,53 mg/kg
20,Nc1ccc(F)cc1,417 mg/kg
21,CC(C)(C)c1cc([N+](=O)[O-])cc([N+](=O)[O-])c1O,26 mg/kg
22,CCn1c(=O)oc2ccc(Cl)cc21,1350 mg/kg

row,Compound,LD50
1,CC(N)CC(C)(C)N (stereo unspecified),431 mg/kg
2,CCSCCSP(=S)(OC)OC,40 mg/kg
3,COP(=O)(OC1CCCCC1)Sc1ccc(Cl)cc1 (stereo unspecified),160 mg/kg
4,O=S(=O)(O)c1cccc2c(S(=O)(=O)O)cccc12,30000 mg/kg
5,COc1ccc2c3c1OC1C(O)CCC4C(C2)N(C)CCC341 (stereo unspecified),359 mg/kg
6,CCCOC(=O)C1COc2ccccc2O1 (stereo unspecified),7450 mg/kg
7,Cc1occc(=O)c1O,1410 mg/kg
8,Cl[C@H]1[C@H](Cl)[C@@H](Cl)[C@H](Cl)[C@@H](Cl)[C@@H]1Cl (racemic),6000 mg/kg
9,CO[C@@]1(NC(=O)CSCC#N)C(=O)N2C(C(=O)O)=C(CSc3nnnn3C)CS[C@@H]21,3200 mg/kg
10,COc1ccc2c(c1)c(CC(=O)OCOC(=O)c1ccccc1)c(C)n2C(=O)c1ccc(Cl)cc1,73 mg/kg
11,O=C(CS)OCCCCOC(=O)CS,405 mg/kg
12,Nc1nc2ccccc2o1,600 mg/kg
13,CC(C)CCCC(C)(C)O,6800 mg/kg
14,NC(=O)C(=O)O,21100 mg/kg
15,CCCC(C)(C)C(=O)Nc1ccc(Cl)cc1,2600 mg/kg
16,N#CSc1ccc(C(=O)O)cc1,83 mg/kg
17,CCc1cc(S(=O)(=O)O)c2cc(C(C)C)cccc1-2,1100 mg/kg
18,CCCc1c(OCc2cccn3c(=O)c(CC(=O)O)cnc23)ccc(C(C)=O)c1O,4000 mg/kg
19,CNCC12CCC(c3ccccc31)c1ccccc12,700 mg/kg and 600 mg/kg
20,Fc1cc(F)c2nc(C(F)(F)F)[nH]c2c1F,2.29 mg/kg
21,Nc1ccc(Cl)cc1Cl,1600 mg/kg
22,CC(=O)Nc1cc(Cl)ccc1Cl,4100 mg/kg

row,Compound,LD50
1,CC(=O)Oc1ccc(C#N)cc1,500 mg/kg
2,OC1CCCc2ccccc21 (stereo unspecified),1620 mg/kg
3,CCOC(C1=NCC(CC)(CC)CN1)c1cccc(Cl)c1 (stereo unspecified),110 mg/kg
4,CC1CS1 (stereo unspecified),254 mg/kg
5,ClC=Cc1ccccc1,5200 mg/kg
6,O=C(O)c1cccc(Cl)n1,2180 mg/kg
7,CC(C)N(CCC(C(N)=O)(c1ccccc1)c1ccccn1)C(C)C (stereo unspecified),880 mg/kg and 333 mg/kg
8,COc1c(Cl)c(Cl)c2[nH]c(C(F)(F)F)nc2c1Cl,33 mg/kg
9,Cc1ccc(S(=O)(=O)NCl)cc1,935 mg/kg
10,CC1(C)OCC(CCl)O1 (stereo unspecified),115 mg/kg
11,CCOP(=S)(OCC)ON1C(=O)c2cccc3cccc(c23)C1=O,500 mg/kg
12,N#CCCNCCC#N,2700 mg/kg
13,CN1C(=O)c2ccc([N+](=O)[O-])cc2C1=O,2800 mg/kg
14,COP(=O)(OC)OC=C(Br)Br,253 mg/kg
15,CCCCCCCCCCC(C)c1ccc(S(=O)(=O)O)cc1 (stereo unspecified),437 mg/kg
16,O=C(O)c1c(Cl)c(Cl)c(Cl)c(Cl)c1C(O)=Nc1cccc(Cl)c1Cl,2340 mg/kg
17,FC(F)(F)c1nc2c(Cl)c(Cl)ccc2[nH]1,13.1 mg/kg
18,CCOP(=S)(NC(C)CC)Oc1cc(C)ccc1[N+](=O)[O-] (stereo unspecified),630 mg/kg
19,CCC(C(=O)O)C1(O)CCCCC1 (stereo unspecified),4820 mg/kg
20,COc1cc2[nH]c(=N)sc2cc1OC,1160 mg/kg
21,C=CCc1ccc(O)c(OC)c1,1930 mg/kg
